{
  "source": "patent US20130212744A1",
  "about": "“METHOD OF REDUCING INSECT-VECTORED VIRAL INFECTIONS” (priority 2010, published 2013)",
  "tested_on": "TYLCV (tomato yellow leaf curl virus)",
  "test": "Foliar use field trial on tomato, infected leaf area by TYLC virus",
  "format": "in vivo",
  "method": "Two studies were carried out in Elhasanya, Egypt in 2009 on tomato plants of the variety Fayrouz with the main goal to measure efficacy on the whitefly Bemisia tabaci. The plot size was 4.8 m^2 and 6 replicates were used in the trial. Products were applied 3 times on young tomato plants at BBCH stages 14, 17 and 51 at spray intervals between 12 and 19 days. The spray volume was at the first application 350 l/ha and later 500 l/ha. The evaluation of this study was done counting the adult whiteflies (Bemisia tabaci) as well as the nymphs and the eggs in each plot. In addition to the direct whitefly effect, visual symptoms of the virus, mainly TYLCV (tomato yellow leaf curl virus) were evaluated also.\nASM=Acibenzolar-S-methyl. WG 50=Actigard® 50WG, a water-dispersible granule with the active ingredient ASM CYNT=Cyantraniliprole. WG 40=Cyazypyr®, a water dispersable granule with the active ingredient CYNT. Results on whitefly adults. Trial 1\nEvaluation of percentage of infected leaf area by TYLC virus (average of 45 plants evaluated per treatment) Trial 1",
  "data": [
    {"smiles": "CSC(=O)c1cccc2nnsc12", "note": "[ASM, S-methyl benzo[1,2,3]thiadiazole-7-carbothioate]", "values": [
      {"measurement": "% Infected Surface area with virus / plant", "setting": "12.5 g ai/hl, 5DAA2, Trial 1", "value": 0.0, "unit": "%"},
      {"measurement": "% Infected Surface area with virus / plant", "setting": "12.5 g ai/hl, 5DAA2, Trial 2", "value": 0.0, "unit": "%"},
      {"measurement": "% Infected Surface area with virus / plant", "setting": "12.5 g ai/hl, 5DAA3, Trial 1", "value": 1.0, "unit": "%"},
      {"measurement": "% Infected Surface area with virus / plant", "setting": "12.5 g ai/hl, 5DAA3, Trial 2", "value": 1.0, "unit": "%"},
      {"measurement": "% Infected Surface area with virus / plant", "setting": "12.5 g ai/hl, 10DAA3, Trial 1", "value": 9.6, "unit": "%"},
      {"measurement": "% Infected Surface area with virus / plant", "setting": "12.5 g ai/hl, 10DAA3, Trial 2", "value": 9.6, "unit": "%"},
      {"measurement": "% Infected Surface area with virus / plant", "setting": "12.5 g ai/hl, 15DAA3, Trial 1", "value": 9.9, "unit": "%"},
      {"measurement": "% Infected Surface area with virus / plant", "setting": "12.5 g ai/hl, 15DAA3, Trial 2", "value": 9.9, "unit": "%"},
      {"measurement": "% Infected Surface area with virus / plant", "setting": "12.5 g ai/hl, 20DAA3, Trial 1", "value": 10.7, "unit": "%"},
      {"measurement": "% Infected Surface area with virus / plant", "setting": "12.5 g ai/hl, 20DAA3, Trial 2", "value": 10.7, "unit": "%"},
      {"measurement": "% Infected Surface area with virus / plant", "setting": "12.5 g ai/hl, 24DAA3, Trial 1", "value": 14.4, "unit": "%"},
      {"measurement": "% Infected Surface area with virus / plant", "setting": "12.5 g ai/hl, 24DAA3, Trial 2", "value": 14.4, "unit": "%"},
      {"measurement": "% Infected Surface area with virus / plant", "setting": "25 g ai/hl, 5DAA2, Trial 1", "value": 0.0, "unit": "%"},
      {"measurement": "% Infected Surface area with virus / plant", "setting": "25 g ai/hl, 5DAA2, Trial 2", "value": 0.0, "unit": "%"},
      {"measurement": "% Infected Surface area with virus / plant", "setting": "25 g ai/hl, 5DAA3, Trial 1", "value": 0.0, "unit": "%"},
      {"measurement": "% Infected Surface area with virus / plant", "setting": "25 g ai/hl, 5DAA3, Trial 2", "value": 0.0, "unit": "%"},
      {"measurement": "% Infected Surface area with virus / plant", "setting": "25 g ai/hl, 10DAA3, Trial 1", "value": 3.3, "unit": "%"},
      {"measurement": "% Infected Surface area with virus / plant", "setting": "25 g ai/hl, 10DAA3, Trial 2", "value": 3.3, "unit": "%"},
      {"measurement": "% Infected Surface area with virus / plant", "setting": "25 g ai/hl, 15DAA3, Trial 1", "value": 4.7, "unit": "%"},
      {"measurement": "% Infected Surface area with virus / plant", "setting": "25 g ai/hl, 15DAA3, Trial 2", "value": 4.7, "unit": "%"},
      {"measurement": "% Infected Surface area with virus / plant", "setting": "25 g ai/hl, 20DAA3, Trial 1", "value": 5.0, "unit": "%"},
      {"measurement": "% Infected Surface area with virus / plant", "setting": "25 g ai/hl, 20DAA3, Trial 2", "value": 5.0, "unit": "%"},
      {"measurement": "% Infected Surface area with virus / plant", "setting": "25 g ai/hl, 24DAA3, Trial 1", "value": 7.2, "unit": "%"},
      {"measurement": "% Infected Surface area with virus / plant", "setting": "25 g ai/hl, 24DAA3, Trial 2", "value": 7.2, "unit": "%"}
    ]},
    {"smiles": "CNC(=O)c1cc(C#N)cc(C)c1NC(=O)c1cc(Br)nn1-c1ncccc1Cl", "note": "[CYNT, 3-bromo-1-(3-chloro-2-pyridyl)-4′-cyano-2′-methyl-6′-(methylcarbamoyl)pyrazole-5-carboxanilide]", "values": [
      {"measurement": "% Infected Surface area with virus / plant", "setting": "75 g ai/hl, 5DAA2, Trial 1", "value": 0.0, "unit": "%"},
      {"measurement": "% Infected Surface area with virus / plant", "setting": "75 g ai/hl, 5DAA2, Trial 2", "value": 0.0, "unit": "%"},
      {"measurement": "% Infected Surface area with virus / plant", "setting": "75 g ai/hl, 5DAA3, Trial 1", "value": 3.0, "unit": "%"},
      {"measurement": "% Infected Surface area with virus / plant", "setting": "75 g ai/hl, 5DAA3, Trial 2", "value": 3.0, "unit": "%"},
      {"measurement": "% Infected Surface area with virus / plant", "setting": "75 g ai/hl, 10DAA3, Trial 1", "value": 5.1, "unit": "%"},
      {"measurement": "% Infected Surface area with virus / plant", "setting": "75 g ai/hl, 10DAA3, Trial 2", "value": 5.1, "unit": "%"},
      {"measurement": "% Infected Surface area with virus / plant", "setting": "75 g ai/hl, 15DAA3, Trial 1", "value": 7.1, "unit": "%"},
      {"measurement": "% Infected Surface area with virus / plant", "setting": "75 g ai/hl, 15DAA3, Trial 2", "value": 7.1, "unit": "%"},
      {"measurement": "% Infected Surface area with virus / plant", "setting": "75 g ai/hl, 20DAA3, Trial 1", "value": 9.8, "unit": "%"},
      {"measurement": "% Infected Surface area with virus / plant", "setting": "75 g ai/hl, 20DAA3, Trial 2", "value": 9.8, "unit": "%"},
      {"measurement": "% Infected Surface area with virus / plant", "setting": "75 g ai/hl, 24DAA3, Trial 1", "value": 10.3, "unit": "%"},
      {"measurement": "% Infected Surface area with virus / plant", "setting": "75 g ai/hl, 24DAA3, Trial 2", "value": 10.3, "unit": "%"},
      {"measurement": "% Infected Surface area with virus / plant", "setting": "100 g ai/hl, 5DAA2, Trial 1", "value": 0.8, "unit": "%"},
      {"measurement": "% Infected Surface area with virus / plant", "setting": "100 g ai/hl, 5DAA2, Trial 2", "value": 0.8, "unit": "%"},
      {"measurement": "% Infected Surface area with virus / plant", "setting": "100 g ai/hl, 5DAA3, Trial 1", "value": 1.9, "unit": "%"},
      {"measurement": "% Infected Surface area with virus / plant", "setting": "100 g ai/hl, 5DAA3, Trial 2", "value": 1.9, "unit": "%"},
      {"measurement": "% Infected Surface area with virus / plant", "setting": "100 g ai/hl, 10DAA3, Trial 1", "value": 3.1, "unit": "%"},
      {"measurement": "% Infected Surface area with virus / plant", "setting": "100 g ai/hl, 10DAA3, Trial 2", "value": 3.1, "unit": "%"},
      {"measurement": "% Infected Surface area with virus / plant", "setting": "100 g ai/hl, 15DAA3, Trial 1", "value": 3.9, "unit": "%"},
      {"measurement": "% Infected Surface area with virus / plant", "setting": "100 g ai/hl, 15DAA3, Trial 2", "value": 3.9, "unit": "%"},
      {"measurement": "% Infected Surface area with virus / plant", "setting": "100 g ai/hl, 20DAA3, Trial 1", "value": 4.5, "unit": "%"},
      {"measurement": "% Infected Surface area with virus / plant", "setting": "100 g ai/hl, 20DAA3, Trial 2", "value": 4.5, "unit": "%"},
      {"measurement": "% Infected Surface area with virus / plant", "setting": "100 g ai/hl, 24DAA3, Trial 1", "value": 5.3, "unit": "%"},
      {"measurement": "% Infected Surface area with virus / plant", "setting": "100 g ai/hl, 24DAA3, Trial 2", "value": 5.3, "unit": "%"}
    ]}
  ]
}
